Earlier results on eight compounds are cited in patent publication US8507276B2, “Tissue culture media used as a component of cosmetics” (La Prairie Group AG, priority 2003, dated 2013).

Like-named read-outs stand apart in the source and are kept apart here.

For the compound `CCCCCCCCOC(=O)OCCCCCCCC` [Cetiol CC, Dicarpylyl Carbonate], the Polarity (nonpolar lipids) is listed as 31.7 mN/m. For the compound C12-13 Alkyl Lactate [Cosmacol ELI], the Polarity (polar lipids) is 8.8 mN/m. For the compound C12-15 Alkyl Benzoate [Finsolv TN], the Polarity (medium-polar lipids) is 21.8 mN/m. With “Caprylic/Capric Triglyceride [Miglyol 812]”, the Polarity (medium-polar lipids) is on record as 21.3 mN/m. For Cetearyl Isononanoate [Cetiol SN], the Polarity (medium-polar lipids) is 28.6 mN/m.

As for Decyl Olivate [Lipodermanol OL], for the setting “nonpolar lipids”, the Polarity was 40.3 mN/m. In the case of Octyl Cocoate [Estol 1540 EHC], the Polarity (nonpolar lipids) is 30.0 mN/m. Turning to “Propylene Glycol Dicaprylate/Dicaprate [Miglyol 840]”, where the note is “polar lipids”, the Polarity was 18.7 mN/m.
